# According to patent US5571788A, “Stable calcitonin pharmaceutical compositions” (Ciba-Geigy Corporation, priority 1994, dated 1996):
# Assays:
# [1] = Ability of an acid to produce a stable hCT solution (stored 24 hours at 25° C., solution remains clear); assay type: physicochemical; conditions: aqueous hCT solution with the acid, no salt or buffer
# [2] = Long-time hCT stability of aqueous solutions (solution remains clear, free of fibrils); conditions: for time solution is stable: Example 1 repeated (5 mg/ml hCT) with acetic acid replaced by the named acid
# [3] = Absorption spectra and HPLC of stored hCT solutions; assay type: physicochemical; conditions: hCT stored in aqueous solutions of Example 1
# [4] = Extrapolated time of fibrillation (ln/ln plot of fibrillation time against hCT concentration); assay type: physicochemical; conditions: 5-9 mg/ml hCT in 0.001% acetic acid, 4° C.; ln/ln plot from solutions up to 100 mg/ml hCT
# Procedure: The stability of the solution is dependent on the concentration. We have found a linear correlation between the natural logarithm of fibrillation time and the natural logarithm of hCT concentration at a given temperature. From measurements on hCT solutions with concentrations up to 100 mg/ml hCT and using the 1n/1n plot, stability of more than 5 years at 4° C. is predicted for solutions with 5-9 mg/ml hCT in 0.001% acetic acid.
# Solutions of hCT are made using different concentrations of methyl cellulose (MC) and hydroxypropyl methyl cellulose (HPMC) with and without 0.01% benzethonium chloride (BTC), in one case also with 0.001% acetic acid (AA) and in one case using 0.5% dextran (D). The extrapolated time of fibrillation in years is given for hCT concentration of 3.3 mg/ml and 6.6 mg/ml.
# [5] = SUNTEST accelerated light exposure, stability against fibril formation; assay type: physicochemical; conditions: Example 3 solutions with 0.5% hydroxypropylmethylcellulose; after 24 hours at 47° C. in SUNTEST machine
# [6] = Chemical stability tests (Roger's test); assay type: physicochemical; conditions: 3.3 mg/ml hCT, 0.5% methyl cellulose, 0.02% benzethonium chloride, 0.001% acetic acid; in 5 years, storage at 10° C.
# Procedure: A solution of hCT is made containing 3.3 mg/ml hCT, 0.5% methyl cellulose, 0.02% benzethonium chloride and 0.001% acetic acid. Chemical stability tests (Roger's test) predicted only 0.02% chemical decomposition of the hCT in 5 years for storage at 10° C.
Compound,acid forms stable hCT solution [1],time solution is stable [2],other results
O=C(O)C(O)C(O)C(=O)O (racemic) [DL-tartaric acid],form stable solutions,over 4 days,
N[C@H](CCC(=O)O)C(=O)O [D-glutamic acid],do not form stable solutions,,
N[C@@H](CCC(=O)O)C(=O)O [L-glutamic acid],,over 4 days,
O=C(O)C(O)C(O)C(=O)O [L-α-tartaric acid],form stable solutions,over 4 days,
CC(=O)O [acetic acid],form stable solutions,,stabilising conditions for hCT solution ([2]; acid concentration 0.001%): best case
O=C(O)CCCCC(=O)O [adipic acid],form stable solutions,over 4 days,
O=C1O[C@H]([C@@H](O)CO)C(O)=C1O [ascorbic acid],form stable solutions,over 4 days,
N[C@@H](CC(=O)O)C(=O)O [aspartic acid],do not form stable solutions,,
O=C(O)CC(O)(CC(=O)O)C(=O)O [citric acid],form stable solutions,over 4 days,
O=C(O)CN(CCN(CC(=O)O)CC(=O)O)CC(=O)O [ethylene - diamine tetraacetic acid],form stable solutions,,
O=CO [formic acid],form stable solutions,over 4 days,
O=C(O)[C@H](O)[C@@H](O)[C@H](O)[C@H](O)CO [gluconic acid],do not form stable solutions,,
O=C(O)CCCC(=O)O [glutaric acid],form stable solutions,over 4 days,
Cl [hydrochloric acid],form stable solutions,over 4 days,
O=C(O)/C=C\C(=O)O [maleic acid],do not form stable solutions,,
O=C(O)CC(=O)O [malonic acid],form stable solutions,over 4 days,
Oc1ccccc1 [phenol],form stable solutions,,
O=C(O)CCC(=O)O [succinic acid],,over 4 days,
O=S(=O)(O)O [sulphuric acid],do not form stable solutions,,
human calcitonin [hCT],,,"change in hCT properties (absorption spectra and HPLC) [3]: no change in hCT properties; predicted stability of hCT solution [4]: more than 5 years; stability against fibril formation under accelerated light exposure [5]: stable against fibril formulation; predicted chemical decomposition of the hCT [6]: 0.02%; time solutions are stable ([2]; Example 3: Example 1 solutions (5 mg/ml hCT, acetic acid) plus 0.5% hydroxypropylmethylcellulose, 4° C., 22° C. and 37° C., in the dark or in daylight): more than 3.5 months"
